# Assay results reported in article PMC8909834, “An Orally Bioavailable and Highly Efficacious Inhibitor of CDK9/FLT3 for the Treatment of Acute Myeloid Leukemia” (Cancers, 2022).
# Key:
# Assay in all cases: Kinase Hotspot radiolabel assay
# Assay type in all cases: biochemical
# Details in all cases: read-out: % Residual Activity
# CAMK2g = target: T1, CAMK2g (Homo sapiens, UniProt Q13555)
# T1 construct: purchased Reaction Biology Corporation (Kinase HotSpot)
# In short: (§1)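 Profiled at 1 µM compound within a 369-kinase panel using a radiolabel Hotspot format. Ki values were then determined for kinases showing greater than 90% inhibition.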
# c-MER = target: T2, c-MER (Homo sapiens, UniProt Q12866)
# T2 construct: purchased Reaction Biology Corporation (Kinase HotSpot)
# In short: as §1
# SYK = target: T3, SYK (Homo sapiens, UniProt P43405)
# T3 construct: purchased Reaction Biology Corporation (Kinase HotSpot)
# In short: as §1
# NEK9 = target: T4, NEK9 (Homo sapiens, UniProt Q8TD19)
# T4 construct: purchased Reaction Biology Corporation (Kinase HotSpot)
# In short: as §1
# EPHA4 = target: T5, EPHA4 (Homo sapiens, UniProt P54764)
# T5 construct: purchased Reaction Biology Corporation (Kinase HotSpot)
# T5 sequence (P54764 20-986): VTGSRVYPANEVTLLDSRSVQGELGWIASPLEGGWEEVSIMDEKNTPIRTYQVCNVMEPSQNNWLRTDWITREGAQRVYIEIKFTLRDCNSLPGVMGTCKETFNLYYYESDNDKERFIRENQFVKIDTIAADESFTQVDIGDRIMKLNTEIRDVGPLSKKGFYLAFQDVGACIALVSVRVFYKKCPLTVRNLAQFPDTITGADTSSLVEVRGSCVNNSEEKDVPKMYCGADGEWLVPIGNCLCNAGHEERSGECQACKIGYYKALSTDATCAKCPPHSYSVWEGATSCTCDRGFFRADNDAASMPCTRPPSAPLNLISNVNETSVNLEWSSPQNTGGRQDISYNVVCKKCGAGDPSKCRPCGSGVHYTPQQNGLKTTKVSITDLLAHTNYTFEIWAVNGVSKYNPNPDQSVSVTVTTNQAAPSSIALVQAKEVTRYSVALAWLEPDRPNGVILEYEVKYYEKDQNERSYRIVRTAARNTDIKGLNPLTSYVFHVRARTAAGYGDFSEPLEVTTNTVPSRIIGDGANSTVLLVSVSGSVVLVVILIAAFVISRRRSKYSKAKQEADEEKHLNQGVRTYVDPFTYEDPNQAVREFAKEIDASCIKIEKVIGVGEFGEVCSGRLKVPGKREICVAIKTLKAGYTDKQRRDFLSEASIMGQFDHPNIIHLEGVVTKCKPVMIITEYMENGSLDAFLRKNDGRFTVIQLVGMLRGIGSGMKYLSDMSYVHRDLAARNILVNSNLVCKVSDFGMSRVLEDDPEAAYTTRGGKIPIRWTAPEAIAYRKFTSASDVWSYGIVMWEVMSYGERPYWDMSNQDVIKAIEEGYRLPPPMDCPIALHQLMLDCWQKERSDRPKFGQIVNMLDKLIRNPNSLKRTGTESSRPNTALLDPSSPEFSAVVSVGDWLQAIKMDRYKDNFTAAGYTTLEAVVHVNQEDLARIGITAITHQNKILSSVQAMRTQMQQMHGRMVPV
# In short: as §1
# RIPK2 = target: T6, RIPK2 (Homo sapiens, UniProt O43353)
# T6 construct: purchased Reaction Biology Corporation (Kinase HotSpot)
# In short: as §1
# CK1epsilon = target: T7, CK1epsilon (Homo sapiens, UniProt P49674)
# T7 construct: purchased Reaction Biology Corporation (Kinase HotSpot)
# In short: as §1
# PAK2 = target: T8, PAK2 (Homo sapiens, UniProt Q13177)
# T8 construct: purchased Reaction Biology Corporation (Kinase HotSpot)
# In short: as §1
# EPHA5 = target: T9, EPHA5 (Homo sapiens, UniProt P54756)
# T9 construct: purchased Reaction Biology Corporation (Kinase HotSpot)
# T9 sequence (P54756 25-1037): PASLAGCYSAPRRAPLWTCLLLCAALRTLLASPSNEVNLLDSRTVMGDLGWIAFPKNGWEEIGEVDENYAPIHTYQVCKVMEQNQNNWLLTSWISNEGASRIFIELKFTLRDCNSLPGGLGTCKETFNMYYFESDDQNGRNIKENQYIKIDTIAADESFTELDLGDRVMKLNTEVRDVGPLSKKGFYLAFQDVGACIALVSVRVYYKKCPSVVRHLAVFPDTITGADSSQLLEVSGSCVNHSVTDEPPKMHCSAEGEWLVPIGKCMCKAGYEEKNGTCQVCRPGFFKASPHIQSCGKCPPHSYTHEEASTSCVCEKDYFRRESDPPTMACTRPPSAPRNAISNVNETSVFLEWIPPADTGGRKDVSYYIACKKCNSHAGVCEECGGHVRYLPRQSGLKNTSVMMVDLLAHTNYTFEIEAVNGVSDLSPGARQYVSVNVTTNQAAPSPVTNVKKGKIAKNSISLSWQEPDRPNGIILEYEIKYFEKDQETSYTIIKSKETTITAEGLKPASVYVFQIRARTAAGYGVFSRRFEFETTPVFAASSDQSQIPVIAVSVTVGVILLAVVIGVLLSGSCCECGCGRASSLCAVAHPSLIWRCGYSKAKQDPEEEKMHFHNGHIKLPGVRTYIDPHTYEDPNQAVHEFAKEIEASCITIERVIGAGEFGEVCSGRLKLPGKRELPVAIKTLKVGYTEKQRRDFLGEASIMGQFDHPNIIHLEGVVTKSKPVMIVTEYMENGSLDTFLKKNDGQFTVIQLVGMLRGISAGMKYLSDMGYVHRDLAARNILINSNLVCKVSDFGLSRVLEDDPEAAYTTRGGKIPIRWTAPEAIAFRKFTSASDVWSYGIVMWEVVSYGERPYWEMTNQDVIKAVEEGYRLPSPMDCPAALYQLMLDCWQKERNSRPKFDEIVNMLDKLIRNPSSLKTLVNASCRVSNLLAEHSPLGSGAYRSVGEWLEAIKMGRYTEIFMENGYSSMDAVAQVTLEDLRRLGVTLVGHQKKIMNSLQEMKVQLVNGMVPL
# In short: as §1
# CDK17/cyclin Y (PCTK2) = target: T10, CDK17/cyclin Y (PCTK2) (Homo sapiens, UniProt Q00537)
# T10 construct: purchased Reaction Biology Corporation (Kinase HotSpot)
# T10 sequence (Q00537 whole entry): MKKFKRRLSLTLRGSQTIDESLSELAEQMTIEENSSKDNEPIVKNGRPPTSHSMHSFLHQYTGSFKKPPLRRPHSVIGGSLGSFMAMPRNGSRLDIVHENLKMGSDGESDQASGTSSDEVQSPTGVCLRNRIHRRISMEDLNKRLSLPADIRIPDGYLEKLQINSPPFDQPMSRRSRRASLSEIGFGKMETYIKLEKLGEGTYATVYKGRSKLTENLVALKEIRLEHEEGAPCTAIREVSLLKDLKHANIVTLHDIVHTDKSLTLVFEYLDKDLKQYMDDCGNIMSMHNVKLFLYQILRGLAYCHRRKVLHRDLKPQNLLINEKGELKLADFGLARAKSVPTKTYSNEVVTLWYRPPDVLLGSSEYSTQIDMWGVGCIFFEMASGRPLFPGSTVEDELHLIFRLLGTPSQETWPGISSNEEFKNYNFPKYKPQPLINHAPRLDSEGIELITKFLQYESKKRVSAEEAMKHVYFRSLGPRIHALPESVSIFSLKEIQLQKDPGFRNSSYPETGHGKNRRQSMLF
# T10 sequence (Q8ND76 whole entry partner): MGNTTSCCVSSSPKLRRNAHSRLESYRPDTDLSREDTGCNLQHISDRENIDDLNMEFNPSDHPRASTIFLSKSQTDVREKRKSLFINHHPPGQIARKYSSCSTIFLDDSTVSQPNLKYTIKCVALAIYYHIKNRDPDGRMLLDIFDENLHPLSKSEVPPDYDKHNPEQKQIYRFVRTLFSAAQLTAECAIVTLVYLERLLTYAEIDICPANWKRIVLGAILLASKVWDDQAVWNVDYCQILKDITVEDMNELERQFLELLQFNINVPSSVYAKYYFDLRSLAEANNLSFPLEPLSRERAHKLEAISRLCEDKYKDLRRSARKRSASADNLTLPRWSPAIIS
# In short: as §1
# ERK5/MAPK7 = target: T11, ERK5/MAPK7 (Homo sapiens, UniProt Q13164)
# T11 construct: purchased Reaction Biology Corporation (Kinase HotSpot)
# In short: as §1
# ROCK2 = target: T12, ROCK2 (Homo sapiens, UniProt O75116)
# T12 construct: purchased Reaction Biology Corporation (Kinase HotSpot)
# In short: as §1
# LCK = target: T13, LCK (Homo sapiens, UniProt P06239)
# T13 construct: purchased Reaction Biology Corporation (Kinase HotSpot)
# T13 sequence (P06239 whole entry): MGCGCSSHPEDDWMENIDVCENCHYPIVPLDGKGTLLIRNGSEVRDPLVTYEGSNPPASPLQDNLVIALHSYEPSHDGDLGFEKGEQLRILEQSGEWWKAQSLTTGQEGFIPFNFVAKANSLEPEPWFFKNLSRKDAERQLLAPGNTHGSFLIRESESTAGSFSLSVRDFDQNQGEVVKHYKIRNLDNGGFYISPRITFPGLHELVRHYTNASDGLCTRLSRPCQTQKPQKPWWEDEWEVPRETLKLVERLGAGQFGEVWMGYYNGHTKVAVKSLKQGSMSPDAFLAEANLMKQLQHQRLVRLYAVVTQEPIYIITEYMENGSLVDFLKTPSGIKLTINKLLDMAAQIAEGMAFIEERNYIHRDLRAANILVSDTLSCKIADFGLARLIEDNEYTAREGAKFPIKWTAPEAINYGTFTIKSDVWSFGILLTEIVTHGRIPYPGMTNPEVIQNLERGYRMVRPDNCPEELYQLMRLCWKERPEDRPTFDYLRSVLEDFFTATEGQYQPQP
# In short: as §1
# PKCzeta = target: T14, PKCzeta (Homo sapiens, UniProt Q05513)
# T14 construct: purchased Reaction Biology Corporation (Kinase HotSpot)
# In short: as §1
# CLK4 = target: T15, CLK4 (Homo sapiens, UniProt Q9HAZ1)
# T15 construct: purchased Reaction Biology Corporation (Kinase HotSpot)
# In short: as §1
# ABL2/ARG = target: T16, ABL2/ARG (Homo sapiens, UniProt P42684)
# T16 construct: purchased Reaction Biology Corporation (Kinase HotSpot)
# In short: as §1
# MRCKa/CDC42BPA = target: T17, MRCKa/CDC42BPA (Homo sapiens, UniProt Q5VT25)
# T17 construct: purchased Reaction Biology Corporation (Kinase HotSpot)
# In short: as §1
# CDK1/cyclin A = target: T18, CDK1/cyclin A (Homo sapiens, UniProt P06493)
# T18 construct: purchased Reaction Biology Corporation (Kinase HotSpot)
# In short: as §1
# EGFR = target: T19, EGFR (Homo sapiens, UniProt P00533)
# T19 construct: purchased Reaction Biology Corporation (Kinase HotSpot)
# T19 sequence (P00533 25-1210): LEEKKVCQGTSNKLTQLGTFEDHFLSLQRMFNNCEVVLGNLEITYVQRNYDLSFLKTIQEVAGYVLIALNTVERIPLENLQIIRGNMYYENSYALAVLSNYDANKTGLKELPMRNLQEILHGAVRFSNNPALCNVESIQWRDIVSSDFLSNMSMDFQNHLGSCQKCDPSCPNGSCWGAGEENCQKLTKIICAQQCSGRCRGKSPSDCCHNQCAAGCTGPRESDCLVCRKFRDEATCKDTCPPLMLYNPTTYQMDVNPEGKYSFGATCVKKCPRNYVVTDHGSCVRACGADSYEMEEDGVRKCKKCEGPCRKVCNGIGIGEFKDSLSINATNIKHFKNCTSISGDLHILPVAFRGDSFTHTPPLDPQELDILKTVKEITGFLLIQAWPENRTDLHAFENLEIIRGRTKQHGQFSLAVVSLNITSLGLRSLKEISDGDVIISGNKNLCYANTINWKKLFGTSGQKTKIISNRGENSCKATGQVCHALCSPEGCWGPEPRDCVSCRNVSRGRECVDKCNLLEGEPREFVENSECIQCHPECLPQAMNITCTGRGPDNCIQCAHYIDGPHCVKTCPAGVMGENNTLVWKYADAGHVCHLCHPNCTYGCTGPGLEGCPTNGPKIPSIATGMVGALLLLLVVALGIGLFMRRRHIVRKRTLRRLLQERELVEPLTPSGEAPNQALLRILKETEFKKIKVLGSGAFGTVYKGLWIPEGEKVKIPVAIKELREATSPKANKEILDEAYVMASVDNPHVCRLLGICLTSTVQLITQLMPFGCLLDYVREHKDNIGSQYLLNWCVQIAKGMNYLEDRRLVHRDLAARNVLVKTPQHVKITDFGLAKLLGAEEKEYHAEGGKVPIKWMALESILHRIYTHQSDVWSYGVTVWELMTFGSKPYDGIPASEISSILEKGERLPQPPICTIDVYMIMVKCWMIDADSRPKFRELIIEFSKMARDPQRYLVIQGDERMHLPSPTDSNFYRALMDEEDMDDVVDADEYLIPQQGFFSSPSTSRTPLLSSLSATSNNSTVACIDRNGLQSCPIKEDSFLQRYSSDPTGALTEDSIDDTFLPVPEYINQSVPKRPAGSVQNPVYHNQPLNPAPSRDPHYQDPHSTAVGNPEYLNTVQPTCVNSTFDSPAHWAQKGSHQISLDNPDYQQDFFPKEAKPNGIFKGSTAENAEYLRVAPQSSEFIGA
# In short: as §1
# STK38/NDR1 = target: T20, STK38/NDR1 (Homo sapiens, UniProt Q15208)
# T20 construct: purchased Reaction Biology Corporation (Kinase HotSpot)
# In short: as §1
# PHKg1 = target: T21, PHKg1 (Homo sapiens, UniProt Q16816)
# T21 construct: purchased Reaction Biology Corporation (Kinase HotSpot)
# In short: as §1
# ITK = target: T22, ITK (Homo sapiens, UniProt Q08881)
# T22 construct: purchased Reaction Biology Corporation (Kinase HotSpot)
# In short: as §1
# DYRK4 = target: T23, DYRK4 (Homo sapiens, UniProt Q9NR20)
# T23 construct: purchased Reaction Biology Corporation (Kinase HotSpot)
# In short: as §1
# P38d/MAPK13 = target: T24, P38d/MAPK13 (Homo sapiens, UniProt O15264)
# T24 construct: purchased Reaction Biology Corporation (Kinase HotSpot)
# T24 sequence (O15264 whole entry): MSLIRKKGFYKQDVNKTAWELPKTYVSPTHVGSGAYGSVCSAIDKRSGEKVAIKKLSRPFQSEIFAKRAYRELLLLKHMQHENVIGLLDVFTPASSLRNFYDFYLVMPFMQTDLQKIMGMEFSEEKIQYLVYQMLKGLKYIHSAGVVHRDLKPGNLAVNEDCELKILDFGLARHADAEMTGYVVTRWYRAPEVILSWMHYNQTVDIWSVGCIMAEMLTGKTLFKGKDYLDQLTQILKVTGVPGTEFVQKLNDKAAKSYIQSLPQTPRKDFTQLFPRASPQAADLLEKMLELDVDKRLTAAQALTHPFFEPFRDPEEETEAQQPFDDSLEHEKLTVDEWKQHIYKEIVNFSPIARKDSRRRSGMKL
# In short: as §1
# GRK5 = target: T25, GRK5 (Homo sapiens, UniProt P34947)
# T25 construct: purchased Reaction Biology Corporation (Kinase HotSpot)
# In short: as §1
# YES/YES1 = target: T26, YES/YES1 (Homo sapiens, UniProt P07947)
# T26 construct: purchased Reaction Biology Corporation (Kinase HotSpot)
# In short: as §1
# CDK2/Cyclin A1 = target: T27, CDK2/Cyclin A1 (Homo sapiens, UniProt P24941)
# T27 construct: purchased Reaction Biology Corporation (Kinase HotSpot)
# In short: as §1
# MLK2/MAP3K10 = target: T28, MLK2/MAP3K10 (Homo sapiens, UniProt Q02779)
# T28 construct: purchased Reaction Biology Corporation (Kinase HotSpot)
# In short: as §1
# STK21/CIT = target: T29, STK21/CIT (Homo sapiens, UniProt O14578)
# T29 construct: purchased Reaction Biology Corporation (Kinase HotSpot)
# In short: as §1
# PKCa = target: T30, PKCa (Homo sapiens, UniProt P17252)
# T30 construct: purchased Reaction Biology Corporation (Kinase HotSpot)
# In short: as §1
smiles,measurement,setting,value
Cc1cnc(N[C@H]2CC[C@H](N)CC2)nc1-c1cnc2ccc(-c3ccccc3)cn12 [CDDD11-8],remaining activity at 1 µM,CAMK2g,96.8%
same,remaining activity at 1 µM,c-MER,52.3%
same,remaining activity at 1 µM,SYK,13.4%
same,remaining activity at 1 µM,NEK9,84.7%
same,remaining activity at 1 µM,EPHA4,101%
same,remaining activity at 1 µM,RIPK2,78.1%
same,remaining activity at 1 µM,CK1epsilon,37.1%
same,remaining activity at 1 µM,PAK2,96.7%
same,remaining activity at 1 µM,EPHA5,83.8%
same,remaining activity at 1 µM,CDK17/cyclin Y (PCTK2),34.1%
same,remaining activity at 1 µM,ERK5/MAPK7,93.3%
same,remaining activity at 1 µM,ROCK2,88.9%
same,remaining activity at 1 µM,LCK,72.5%
same,remaining activity at 1 µM,PKCzeta,89.2%
same,remaining activity at 1 µM,CLK4,26.1%
same,remaining activity at 1 µM,ABL2/ARG,67.5%
same,remaining activity at 1 µM,MRCKa/CDC42BPA,97.7%
same,remaining activity at 1 µM,CDK1/cyclin A,78%
same,remaining activity at 1 µM,EGFR,82.2%
same,remaining activity at 1 µM,STK38/NDR1,93.3%
same,remaining activity at 1 µM,PHKg1,59.2%
same,remaining activity at 1 µM,ITK,87.5%
same,remaining activity at 1 µM,DYRK4,93.6%
same,remaining activity at 1 µM,P38d/MAPK13,99%
same,remaining activity at 1 µM,GRK5,88.9%
same,remaining activity at 1 µM,YES/YES1,70%
same,remaining activity at 1 µM,CDK2/Cyclin A1,55.7%
same,remaining activity at 1 µM,MLK2/MAP3K10,76.5%
same,remaining activity at 1 µM,STK21/CIT,85.9%
same,remaining activity at 1 µM,PKCa,76%
